Source: patent US9617330B2, “Chemorepulsion of cells” (Celtaxsys, Inc., priority 2006, dated 2017)

What was measured:
[1] = test system: Human primary CD4+ lymphocytes; assay: Trans-well migration assay (Example 3 method), unimodal fugetaxin test; type: cell-based; set-up: key: A “+” in the Table indicates a positive hit as a unimodal fugetaxin, as that term is defined herein, for that particular cell type; conditions: methods of Example 3
[2] = test system: Human primary neutrophils; assay: as above; type: cell-based; set-up: key to Unimodal fugetaxin hit, Neutrophils: A “+” in the Table indicates a positive hit as a unimodal fugetaxin, as that term is defined herein, for that particular cell type; conditions: for Unimodal fugetaxin hit, Neutrophils: human neutrophils, methods of Example 3
[3] = test system: Eo-HL60 (HL-60 clone 15 differentiated to eosinophil-like phenotype); assay: Trans-well migration assay (Example 1), net migratory response; type: cell-based, human; conditions: net observed response
[4] = test system: Monocyte; assay: as above; conditions: Monocyte; net observed response
Method: Prior to beginning the assay 0.5% Fetal Calf Serum (FCS) in Iscove's Modified Dulbecco's Medium (IMDM) is prepared and stored on ice (Assay Medium). Migratory cells at a concentration of 2×10^7 cells/ml are suspended in Assay Medium. T-cells isolated from donor blood or buffy coats are allowed to rest overnight in Assay Medium at 37° C. in 5% CO2. Neutrophils, monocytes and B cells are utilized as soon as they are purified from donor blood or other source of human origin. Four serial (10×) dilutions of the ligand are then prepared in Assay Medium (normally 10 μg/ml to 0.01 μg/ml).
Plates are removed from the packaging, leaving the membrane behind and intact. The membrane is set aside. Into each well is pipetted 31 μl of solution. For media controls and fugetaxis (chemorepellent) samples, Assay Medium is used. For chemoattraction samples, the appropriate dilution of agent in assay medium is used.
Using a sterile needle, all small bubbles present in each well are popped and the membrane is carefully placed onto the plate, starting at one side and slowly lowering the other edge onto the plate.
Then 29 μl is pipetted into each circle imprinted on the polycarbonate or polyester membrane. For media controls and chemoattraction samples, Assay Medium is used. For fugetaxis (chemorepellent) samples, the appropriate dilution of ligand in assay medium is used.
To each 29 uL aliquot above is added 2 μl of cells (40,000 cells). It is important to ensure that before beginning the cells are well suspended and that they are mixed. This mixing can be accomplished by agitating the tube between each addition.
The plate is then covered with the supplied lid and incubated 1-3 hours in a humidified incubator at 37° C. in 5% CO2. Following the incubation period, the liquid from the top of the plate is removed with a tissue or similar blotting material (e.g. a Kimwipe). The membrane is carefully removed from the top of the plate and discarded. […] Using a multichannel pipettor, each well of the microplate is rinsed with 25 μl Phosphate Buffered Saline (Mediatech #21-040-CV) and transferred to the same wells in the white microplate. Using a multichannel pipettor, 50 μl CellTiter-Glo Luminescent Cell Viability Assay (Promega #G7572) is added to each well and mixed.
The plate is read using the Perkin Elmer Victor^3V plate reader using the Large Aperture Luminescence setting at 8 mm height above the plate with a dwell time of 1 s to quantify the number of migrated cells.
The results reported reflect the net observed migratory response of the cells to the ligand and are not based on the definition of unimodal fugetaxins.

[5] = test system: Monocytes; assay: High throughput transmigration assay (Example 9), chemorepulsion; type: cell-based, human; conditions: mean of three donors at concentration of highest activity, range 0.00125-1.25 μM
From the text: (§1) An agent's repellent index is the ratio of chemorepulsion (CR) to spontaneous migration (SM) induced by the agent, i.e., [(CR)/(SM)]. […] For example, in calculating a RI for an agent, migratory responses including chemorepulsion (CR) and spontaneous migration (SM) may be measured over several decades or log scales of concentration. If, over any two consecutive measurements at concentrations which differ by at least 10 fold, the ratio of CR to SM at each of the two contiguous measurements is equal to or greater than 1.2, then the agent is considered a validated chemorepellent.
(§2) For primary human T cells, up to 80 ml of blood is drawn from a human donor in sodium heparin Vacutainer tubes (Becton-Dickinson). The blood (between 10 and 15 ml per tube) is then layered onto 30 ml of Lymphocyte Separation Medium (LSM) (Cellgro, Herndon, Va.) in a 50 ml conical centrifuge tube and centrifuged for 20 minutes at 2440×g in a swinging bucket rotor. After removing the majority of the plasma from the top of each tube, the peripheral blood mononucleocyte (PBMC) layer is removed and transferred to fresh 50 ml conical centrifuge tubes. The tubes are then filled to 50 ml with IMDM and centrifuged for 10 minutes at 500×g. All but approximately 5 ml of the supernatant is then removed and the pellet resuspended with 25 ml IMDM and the centrifugation repeated. After removal of the supernatant, the cells are resuspended and combined to one 50 ml tube (per subject) and brought to a total volume of 50 ml. The cells are then counted using a hemacytometer (Reichert). After centrifugation under the same conditions, the supernatant is removed and the cells processed using the appropriate Miltenyi Biotec (Auburn, Calif.) negative selection kit to enrich for the desired cell type according to manufacturers instructions. The resulting purified cells are then diluted to 50 ml with IMDM. After centrifugation at 500×g for 10 minutes, the supernatant is removed and the cells resuspended in 15 ml IMDM supplemented with 0.5% heat inactivated fetal calf serum (FCS) (ATCC, Manassas, Va.). After another centrifugation for 10 minutes at 500×g, the supernatant is again removed and the cells resuspended in 7 ml 0.5% FCS in IMDM (assay medium) and transferred to a 15 ml conical centrifuge tube. The cells are then quantitated using a hemacytometer. When enriching for monocytes, the concentration of cells is adjusted to 2×10^7 per ml by centrifugation and removal of the appropriate volume of assay medium. For all other cell types, the tube cap is replaced with one from a 25 cm^2 tissue culture flask (Corning) and the cells stored overnight in a humidified 37° C. incubator with 5% CO2. The concentration of the cells is adjusted as for monocytes just prior to transmigration assay of Example 9.
It is noted that this procedure may be used to isolate and/or purify monocytes. In the monocyte purification method, a further step is included for platelet removal via the use of CD61 microbeads also purchased from Miltenyi Biotec (Auburn, Calif.).
(§3) Migration away from a chemical or biological agent (chemorepulsion (CR)) was measured using ChemoTx plates (Neuroprobe). These plates contain a planar polycarbonate or polyester membrane that has been etched and perforated so that cells can move along the etched tracks and fall through perforation holes, enabling the cells to be collected and the number of migrated cells quantified (FIGS. 5-6). Several dilutions (normally 4 in 10-fold increments) are prepared of the agent of interest. For neutrophils, plates with 3 μm pore membranes are used, while for all other primary cell types, 5 μm pore membranes are used. Membranes may, or may not, be coated with polyvinylpyrrolidine (PVP) as a wetting agent.
For spontaneous migration controls and chemorepulsion (CR) assays, 31 μl of assay medium is pipetted into the lower well of the transmigration apparatus (FIGS. 5-6). […]

[6] = test system: B cells; assay: as above; type: cell-based, human; set-up: key: ratio of chemorepulsion (CR) to spontaneous migration (SM), CR/SM
From the text: as §1, §2, §3
(§4) For spontaneous migration controls and chemorepulsion (CR) assays, 31 μl of assay medium is pipetted into the lower well of the transmigration apparatus (FIGS. 5-6). For spontaneous migration controls and chemoattraction (CA) assays, 29 μl of assay medium is pipetted into upper chamber of the transmigration apparatus (FIG. 5). For CR, the upper well assay medium contains the agent or candidate chemorepellent. […]

[7] = test system: Neutrophils; assay: as above; type: cell-based, human; conditions: Neutrophils, mean of three donors at concentration of highest activity
[8] = test system: CD8+; assay: as above; type: cell-based, human; conditions: mean of three donors at concentration of highest activity
From the text: as §1, §2, §3, §4

[9] = mean of three donors at concentration of highest activity, range 0.00125-1.25 μM

CC(C)Cn1cnc2c(N)nc3ccccc3c21 [Imiquimod, reference compound]
Unimodal fugetaxin hit, CD4+ [1]: +
Unimodal fugetaxin hit, Neutrophils [2]: +
Migratory Response [3]: chemorepulsion
Migratory Response [4]: chemorepulsion

CCL7: chemokine
Repellent Index [5]: 2.3

CCL11: chemokine
Repellent Index [6, 9]: 2.1

CCL13: chemokine
Repellent Index [5]: 2.6

CXCL1: chemokine
Repellent Index ([7]; range 0.00125-1.25 μM): 2.6
Repellent Index [6, 9]: 1.3

HSP27: heat shock protein; accession G01523/AAA62175
Unimodal fugetaxin hit, Neutrophils [2]: +
Migratory Response [3]: chemorepulsion
Repellent Index ([7]; range 0.00125-1.25 μM): 4.4
Migratory Response [4]: chemorepulsion

HSP60: heat shock protein
Unimodal fugetaxin hit, CD4+ [1]: +
Unimodal fugetaxin hit, Neutrophils [2]: +
Migratory Response [3]: chemorepulsion

HSP90: heat shock protein; accession NP_005339.2 and others
Unimodal fugetaxin hit, CD4+ [1]: +
Unimodal fugetaxin hit, Neutrophils [2]: +
Migratory Response [3]: chemorepulsion
Repellent Index ([7]; range 0.00125-1.25 μM): 1.7

IL8: interleukin-8
chemotactic (chemoattractant) versus fugetactic (chemorepellent) response of neutrophils ([2]; neutrophils, 1 hour, FIGS. 3 and 4, at 10 uM where stated): over twice as chemotactic (chemoattractant) as fugetactic (chemorepellent)

B1: HSP25: heat shock protein; accession AAA37862 (protein, UniProt P14602 1-209, looked up)
Heat shock protein beta-1: MTERRVPFSLLRSPSWEPFRDWYPAHSRLFDQAFGVPRLPDEWSQWFSAAGWPGYVRPLPAATAEGPAAVTLAAPAFSRALNRQLSSGVSEIRQTADRWRVSLDVNHFAPEELTVKTKEGVVEITGKHEERQDEHGYISRCFTRKYTLPPGVDPTLVSSSLSPEGTLTVEAPLPKAVTQSAEITIPVTFEARAQIGGPEAGKSEQSGAK
Unimodal fugetaxin hit, Neutrophils [2]: +
Repellent Index ([7]; range 0.00125-1.25 μM): 11.9
Repellent Index ([8]; range 0.00125-1.25 μM): 1.3

B2: Galectin-2: carbohydrate binding protein (galectin), full-length, purchased; accession P05162 (protein, UniProt P05162 1-132, looked up)
chain: MTGELEVKNMDMKPGSTLKITGSIADGTDGFVINLGQGTDKLNLHFNPRFSESTIVCNSLDGSNWGQEQREDHLCFSPGSEVKFTVTFESDKFKVKLPDGHELTFPNRLGHSHLSYLSVRGGFNMSSFKLKE
modifications: full-length
Migratory Response [3]: chemorepulsion
Repellent Index ([8]; range 0.00125-1.25 μM): 1.5

B3: HSP47 Human: heat shock protein; accession AAP35758 (protein, UniProt P50454 19-418, looked up)
Serpin H1: AEVKKPAAAAAPGTAEKLSPKAATLAERSAGLAFSLYQAMAKDQAVENILVSPVVVASSLGLVSLGGKATTASQAKAVLSAEQLRDEEVHAGLGELLRSLSNSTARNVTWKLGSRLYGPSSVSFADDFVRSSKQHYNCEHSKINFRDKRSALQSINEWAAQTTDGKLPEVTKDVERTDGALLVNAMFFKPHWDEKFHHKMVDNRGFMVTRSYTVGVMMMHRTGLYNYYDDEKEKLQIVEMPLAHKLSSLIILMPHHVEPLERLEKLLTKEQLKIWMGKMQKKAVAISLPKGVVEVTHDLQKHLAGLGLTEAIDKNKADLSRMSGKKDLYLASVFHATAFELDTDGNPFDQDIYGREELRSPKLFYADHPFIFLVRDTQSGSLLFIGRLVRPKGDKMRDEL
Migratory Response [3]: chemorepulsion
Repellent Index ([7]; range 0.00125-1.25 μM): 1.4
Repellent Index ([8]; range 0.00125-1.25 μM): 1.4
Repellent Index [6, 9]: 1.5

B4: Semaphorin 3F: semaphorin (protein, UniProt Q13275 19-785, looked up)
Semaphorin-3F: SFPTQDHLPATPRVRLSFKELKATGTAHFFNFLLNTTDYRILLKDEDHDRMYVGSKDYVLSLDLHDINREPLIIHWAASPQRIEECVLSGKDVNGECGNFVRLIQPWNRTHLYVCGTGAYNPMCTYVNRGRRAQATPWTQTQAVRGRGSRATDGALRPMPTAPRQDYIFYLEPERLESGKGKCPYDPKLDTASALINEELYAGVYIDFMGTDAAIFRTLGKQTAMRTDQYNSRWLNDPSFIHAELIPDSAERNDDKLYFFFRERSAEAPQSPAVYARIGRICLNDDGGHCCLVNKWSTFLKARLVCSVPGEDGIETHFDELQDVFVQQTQDVRNPVIYAVFTSSGSVFRGSAVCVYSMADIRMVFNGPFAHKEGPNYQWMPFSGKMPYPRPGTCPGGTFTPSMKSTKDYPDEVINFMRSHPLMYQAVYPLQRRPLVVRTGAPYRLTTIAVDQVDAADGRYEVLFLGTDRGTVQKVIVLPKDDQELEELMLEEVEVFKDPAPVKTMTISSKRQQLYVASAVGVTHLSLHRCQAYGAACADCCLARDPYCAWDGQACSRYTASSKRRSRRQDVRHGNPIRQCRGFNSNANKNAVESVQYGVAGSAAFLECQPRSPQATVKWLFQRDPGDRRREIRAEDRFLRTEQGLLLRALQLSDRGLYSCTATENNFKHVVTRVQLHVLGRDAVHAALFPPLSMSAPPPPGAGPPTPPYQELAQLLAQPEVGLIHQYCQGYWRHVPPSPREAPGAPRSPEPQDQKKPRNRRHHPPDT
Repellent Index ([7]; range 0.01-10 μM): 1.8
Repellent Index ([8]; range 0.01-10 μM): 1.3

B5: Semaphorin 3A: semaphorin (protein, UniProt Q14563 21-771, looked up)
Semaphorin-3A: NYQNGKNNVPRLKLSYKEMLESNNVITFNGLANSSSYHTFLLDEERSRLYVGAKDHIFSFDLVNIKDFQKIVWPVSYTRRDECKWAGKDILKECANFIKVLKAYNQTHLYACGTGAFHPICTYIEIGHHPEDNIFKLENSHFENGRGKSPYDPKLLTASLLIDGELYSGTAADFMGRDFAIFRTLGHHHPIRTEQHDSRWLNDPKFISAHLISESDNPEDDKVYFFFRENAIDGEHSGKATHARIGQICKNDFGGHRSLVNKWTTFLKARLICSVPGPNGIDTHFDELQDVFLMNFKDPKNPVVYGVFTTSSNIFKGSAVCMYSMSDVRRVFLGPYAHRDGPNYQWVPYQGRVPYPRPGTCPSKTFGGFDSTKDLPDDVITFARSHPAMYNPVFPMNNRPIVIKTDVNYQFTQIVVDRVDAEDGQYDVMFIGTDVGTVLKVVSIPKETWYDLEEVLLEEMTVFREPTAISAMELSTKQQQLYIGSTAGVAQLPLHRCDIYGKACAECCLARDPYCAWDGSACSRYFPTAKRRTRRQDIRNGDPLTHCSDLHHDNHHGHSPEERIIYGVENSSTFLECSPKSQRALVYWQFQRRNEERKEEIRVDDHIIRTDQGLLLRSLQQKDSGNYLCHAVEHGFIQTLLKVTLEVIDTEHLEELLHKDDDGDGSKTKEMSNSMTPSQKVWYRDFMQLINHPNLNTMDEFCEQVWKRDRKQRRQRPGHTPGNSNKWKHLQENKKGRNRRTHEFERAPRSV
Repellent Index ([8]; range 0.01-10 μM): 1.3
Repellent Index ([6]; 0.00125 μM, one donor, triplicate, ± SD): 1.87 ± 0.40
Repellent Index ([6]; 0.0125 μM, one donor, triplicate, ± SD): 2.07 ± 0.52
Repellent Index ([6]; 0.125 μM, one donor, triplicate, ± SD): 2.39 ± 0.71
Repellent Index ([6]; 1.25 μM, one donor, triplicate, ± SD): 2.16 ± 0.28
Repellent Index ([6]; mean of three donors at concentration of highest activity, range 0.01-10 μM): 1.6

B6: CCL27: chemokine (protein, UniProt Q9Y4X3 25-112, looked up)
C-C motif chemokine 27: FLLPPSTACCTQLYRKPLSDKLLRKVIQVELQEADGDCHLQAFVLHLAQRSICIHPQNPSLSQWFEHQERKLHGTLPKLNFGMLRKMG
Repellent Index [6, 9]: 1.4
